Measured values taken from patent US20220153741A1, “HETEROCYCLIC COMPOUNDS AS INHIBITORS OF KRAS G12C” (Guangdong Newopp Biopharmaceuticals Co., Ltd., priority 2019, published 2022).
Where two headings read alike, the source gives them in different places.

How the values were obtained:
[1] = amide bond
[2] = from CC(C)c1nccc(CCC(=O)O)c1-n1c(=O)[nH]c(=O)c2cc(F)c(-c3c(N)cccc3Cl)nc21; amide bond; 12-membered ring; T3P; DCE; 39.3 mM; 50.0 °C
[3] = system: pERK1/2 in NCI-H358 cells; assay: Phospho-ERK (pERK) assay in NCI-H358 cells; type: cell-based; conditions: 3 hours compound treatment, pERK1/2 antibody fluorescence
Procedure: Phospho-ERK (pERK) assay: NCI-H358 cells were seeded in 96-well plates (Greiner) in RPMI-1640 with 10% FBS 16 hours prior to compound treatment. Serial dilution of compounds was made and added to wells, and then incubated at 37° C. for 3 hours. After the treatment, cells were fixed with 3.7% formaldehyde (VWR) for 20 min at RT, followed by being permeabilized with ice-cold methanol at −20° C. for 20 min. The methanol was then dumped and replaced with Intercept® (PBS) Blocking Buffer (LiCOR) supplemented with 0.05% Tween-20 and incubated at RT for 1 hour with gentle rocking. The blocking buffer was then replaced with the blocking buffer containing pERK1/2 antibody (Cell Signaling) and incubated at 4° C. overnight with gentle rocking. The plate was washed 5 times with 1×PBS+0.1% Tween-20. The blocking buffer containing LiCOR IRDye 680RD secondary antibody (LiCOR,) was then added and incubated for 1 hour at RT with gentle rocking. After washing 5 times with 1×PBS+0.1% Tween-20, the plate was read using CLARIOstar plate reader (BMG LABTECH GmbH). IC50 values were determined as the concentration of 50% inhibition of the fluorescence signal compared to DMSO treated cells (A: IC50<0.1 μM; B: IC50 between 0.1 μM and 1 μM; C: IC50 between 1 μM and 10 μM; D: >10 μM; ND: not determined).

[4] = system: NCI-H358 (H358, KRAS G12C) cancer cell line; assay: 3D proliferation assay, NCI-H358 (CellTiter-Glo); type: cell-based; conditions: 96-well spheroid plate, 4 days
Procedure: (§1) 3D proliferation assay: NCI-H358 (H358, KRAS G12C) and LS513 (KRAS G12D) cancer cell lines were obtained from ATCC (American Type Culture Collection, VA). Cells were plated in 96-well spheroid plate (CORNING INC, NY)) in RPMI-1640 with 10% FBS. Compounds (11-point dilutions) and DMSO were added to the wells and incubated with cells for 4 days at 37° C. Cell viability was then determined by CellTiter-Glo (Promega, WI). IC50 values of compounds were determined as the concentration of 50% inhibition of cell viability compared to DMSO treated cells (A: IC50<0.1 μM; B: IC50 between 0.1 μM and 1 μM; C: IC50 between 1 μM and 10 μM; D: >10 μM; ND: not determined).

[5] = system: LS513 (KRAS G12D) cancer cell line; assay: 3D proliferation assay, LS513 (CellTiter-Glo); type: cell-based; conditions: 96-well spheroid plate, 4 days
Procedure: as §1

Compound	IC50 ([3]; Homo sapiens, NCI-H358, 3 h) [nM]	IC50 ([4]; Homo sapiens, NCI-H358, 96 h) [nM]	IC50 ([5]; Homo sapiens, LS-513, 96 h) [nM]	also measured
CC(C)c1cccc2c1-n1c(=O)[nH]c(=O)c3cc(F)c(nc31)-c1c(F)cccc1NC(=O)CN2				ring closure, yield of all isomers ([1]; from CC(C)c1cccc(NCC(=O)O)c1-n1c(=O)[nH]c(=O)c2cc(F)c(-c3c(N)cccc3F)nc21, TCFH/N-methylimidazole/pyridine, MeCN/DMF (1:1), 66.0 mM, 11.0 h): 32.7%
CC(C)c1nccc2c1-n1c(=O)[nH]c(=O)c3cc(F)c(nc31)-c1c(Cl)cccc1NC(=O)CC2				ring closure, yield of all isomers ([1]; from CC(C)c1nccc(CCC(=O)O)c1-n1c(=O)[nH]c(=O)c2cc(F)c(-c3c(N)cccc3Cl)nc21, T3P, DCE, 39.3 mM, 50.0 °C, 1.0 h): 29%; ring closure, isolated yield [2]: 29%
CC(C)c1nccc2c1-n1c(=O)[nH]c(=O)c3cc(F)c(nc31)-c1c(F)cccc1NC(=O)CCS2				ring closure, yield of all isomers ([1]; from CC(C)c1nccc(SCCC(=O)O)c1-n1c(=O)[nH]c(=O)c2cc(F)c(-c3c(N)cccc3F)nc21, T3P, DCE, 58.3 mM, 55.0 °C, 16.0 h): 37.4%
CC(C)c1nccc2c1-n1c(=O)nc(O)c3cc(F)c(nc31)-c1c(F)cccc1NC(=O)CC2				ring closure, yield of all isomers ([1]; from CC(C)c1nccc(CCC(=O)O)c1-n1c(=O)nc(O)c2cc(F)c(-c3c(N)cccc3F)nc21, TCFH/NMI, DMF, 37.0 mM, 25.0 °C, 1.0 h): 46.7%
CC(C)c1nccc2c1-n1c(=O)nc(O)c3cc(F)c(nc31)-c1c(F)cccc1NC(=O)CS2				ring closure, yield of all isomers ([1]; from CC(C)c1nccc(SCC(=O)OC(C)(C)C)c1-n1c(=O)nc(O)c2cc(F)c(-c3c(N)cccc3F)nc21, TCFH/N-methylimidazole, DMF, 7.2 mM, 25.0 °C, 1.0 h, 2 steps): 44.4%
C=CC(=O)N1CCN(c2nc(=O)n3c4nc(c(F)cc24)-c2c(F)cccc2NCCCc2ccnc(C(C)C)c2-3)[C@@H](C)C1 (single isomer, unassigned) [Example 2B]				IC50 [3]: 100 to 1000 nM; IC50 [4]: 100 to 1000 nM; IC50 [5]: > 10000 nM
C=CC(=O)N1CCN(c2nc(=O)n3c4nc(c(F)cc24)-c2c(F)cccc2N(C)CCCc2ccnc(C(C)C)c2-3)[C@@H](C)C1 [Example 4, (S)-2^4-(4-acryloyl-2-methylpiperazin-1-yl)-2^6,3^6-difluoro-1^2-isopropyl-4-methyl-2^1,2^2-dihydro-4-aza-2(1,7)-pyrido[2,3-d]pyrimidina-1(3,4)-pyridina-3(1,2)-benzenacycloheptaphan-2^2-one]	< 100	< 100	> 10000	
C=CC(=O)N1C[C@H](C)N(c2nc(=O)n3c4nc(c(F)cc24)-c2c(F)cccc2NCCCc2ccnc(C(C)C)c2-3)C[C@H]1C [Example 7A, 2^4-((2S,5R)-4-acryloyl-2,5-dimethylpiperazin-1-yl)-2^6,3^6-difluoro-1^2-isopropyl-2^1,2^2-dihydro-4-aza-2(1,7)-pyrido[2,3-d]pyrimidina-1(3,4)-pyridina-3(1,2)-benzenacycloheptaphan-2^2-one]	100 to 1000	100 to 1000	> 10000	
C=CC(=O)N1C[C@H](C)N(c2nc(=O)n3c4nc(c(F)cc24)-c2c(F)cccc2NCCCc2ccnc(C(C)C)c2-3)C[C@H]1C [Example 7B, 2^4-((2S,5R)-4-acryloyl-2,5-dimethylpiperazin-1-yl)-2^6,3^6-difluoro-1^2-isopropyl-2^1,2^2-dihydro-4-aza-2(1,7)-pyrido[2,3-d]pyrimidina-1(3,4)-pyridina-3(1,2)-benzenacycloheptaphan-2^2-one]				IC50 [3]: < 100 nM; IC50 [4]: < 100 nM; IC50 [5]: > 10000 nM
C=CC(=O)N1CCN(c2nc(=O)n3c4nc(c(F)cc24)-c2c(Cl)cccc2NCCCc2ccnc(C(C)C)c2-3)[C@@H](C)C1 [Example 10, (S)-2^4-(4-acryloyl-2-methylpiperazin-1-yl)-3^6-chloro-2^6-fluoro-1^2-isopropyl-2^1,2^2-dihydro-4-aza-2(1,7)-pyrido[2,3-d]pyrimidina-1(3,4)-pyridina-3(1,2)-benzenacycloheptaphan-2^2-one]	< 100	< 100	> 10000	
C=CC(=O)N1CCN(c2nc(=O)n3c4nc(c(F)cc24)-c2c(F)cccc2NCCCc2cccc(C(C)C)c2-3)[C@@H](C)C1 [Example 17, (S)-2^4-(4-acryloyl-2-methylpiperazin-1-yl)-2^6,3^6-difluoro-1^6-isopropyl-2^1,2^2-dihydro-4-aza-2(1,7)-pyrido[2,3-d]pyrimidina-1,3(1,2)-dibenzenacycloheptaphan-2^2-one]	100 to 1000	< 100	1000 to 10000	
C=CC(=O)N1CCN(c2nc(=O)n3c4nc(c(F)cc24)-c2c(F)cccc2NCCCN(C)c2cccc(C(C)C)c2-3)[C@@H](C)C1 [Example 28, (S)-2^4-(4-acryloyl-2-methylpiperazin-1-yl)-2^6,3^6-difluoro-1^6-isopropyl-8-methyl-2^1,2^2-dihydro-4,8-diaza-2(1,7)-pyrido[2,3-d]pyrimidina-1,3(1,2)-dibenzenacyclooctaphan-2^2-one]	100 to 1000	< 100	> 10000	
(S)-2^4-(4-acryloyl-2-methylpiperazin-1-yl)-2^6,3^6-difluoro-1^2-isopropyl-2^1,2^2-dihydro-8-thia-4-aza-2(1,7)-pyrido[2,3-d]pyrimidina-1(3,4)-pyridina-3(1,2)-benzenacyclooctaphan-2^2-one [Example 8]				IC50 [3]: < 100 nM; IC50 [4]: < 100 nM; IC50 [5]: > 10000 nM

Second part, led by results:

IC50 ([3]; Homo sapiens, NCI-H358, 3 h) [nM]	IC50 ([4]; Homo sapiens, NCI-H358, 96 h) [nM]	IC50 ([5]; Homo sapiens, LS-513, 96 h) [nM]	Compound	also measured
100 to 1000	< 100	> 10000	C=CC(=O)N1CCN(c2nc(=O)n3c4nc(c(F)cc24)-c2c(F)cccc2NC(=O)CCc2ccnc(C(C)C)c2-3)[C@@H](C)C1 [Example 1, (S)-2^4-(4-Acryloyl-2-methylpiperazin-1-yl)-2^6,3^6-difluoro-1^2-isopropyl-2^1,2^2-dihydro-4-aza-2(1,7)-pyrido[2,3-d]pyrimidina-1(3,4)-pyridina-3(1,2)-benzenacycloheptaphane-2^2,5-dione]	
< 100	< 100	> 10000	C=CC(=O)N1CCN(c2nc(=O)n3c4nc(c(F)cc24)-c2c(F)cccc2NCCSc2ccnc(C(C)C)c2-3)[C@@H](C)C1 [Example 9, (S)-2^4-(4-acryloyl-2-methylpiperazin-1-yl)-2^6,3^6-difluoro-1^2-isopropyl-2^1,2^2-dihydro-7-thia-4-aza-2(1,7)-pyrido[2,3-d]pyrimidina-1(3,4)-pyridina-3(1,2)-benzenacycloheptaphan-2^2-one]	
100 to 1000	100 to 1000	> 10000	C=CC(=O)N1CCN(c2nc(=O)n3c4nc(c(F)cc24)-c2c(F)cccc2N(C(=O)C(C)(C)O)CCCc2ccnc(C(C)C)c2-3)[C@@H](C)C1 [Example 15, (S)-2^4-(4-acryloyl-2-methylpiperazin-1-yl)-2^6,3^6-difluoro-4-(2-hydroxy-2-methylpropanoyl)-1^2-isopropyl-2^1,2^2-dihydro-4-aza-2(1,7)-pyrido[2,3-d]pyrimidina-1(3,4)-pyridina-3(1,2)-benzenacycloheptaphan-2^2-one]	
< 100	< 100	1000 to 10000	C=CC(=O)N1CCN(c2nc(=O)n3c4nc(c(F)cc24)-c2c(F)cccc2N(C)CCCc2cccc(C(C)C)c2-3)[C@@H](C)C1 [Example 19, (S)-2^4-(4-acryloyl-2-methylpiperazin-1-yl)-2^6,3^6-difluoro-1^6-isopropyl-4-methyl-2^1,2^2-dihydro-4-aza-2(1,7)-pyrido[2,3-d]pyrimidina-1,3(1,2)-dibenzenacycloheptaphan-2^2-one]	
< 100	< 100	> 10000	C=CC(=O)N1C[C@H](C)N(c2nc(=O)n3c4nc(c(F)cc24)-c2c(F)cccc2NCCCc2cccc(C(C)C)c2-3)C[C@H]1C [Example 20, 2^4-((2S,5R)-4-acryloyl-2,5-dimethylpiperazin-1-yl)-2^6,3^6-difluoro-1^6-isopropyl-2^1,2^2-dihydro-4-aza-2(1,7)-pyrido[2,3-d]pyrimidina-1,3(1,2)-dibenzenacycloheptaphan-2^2-one]	
100 to 1000	< 100	100 to 1000	C=CC(=O)N1CCN(c2nc(=O)n3c4nc(c(F)cc24)-c2c(F)cccc2NCCCNc2cccc(C(C)C)c2-3)[C@@H](C)C1 [Example 22, (S)-2^4-(4-acryloyl-2-methylpiperazin-1-yl)-2^6,3^6-difluoro-1^6-isopropyl-2^1,2^2-dihydro-4,8-diaza-2(1,7)-pyrido[2,3-d]pyrimidina-1,3(1,2)-dibenzenacyclooctaphan-2^2-one]	
